Assay results as given in the CheMixHub viscosity set.
“And” between values parts separate entries of the source, which are not always exact repeats. Equal values may be shown once.

Test: xn = mol fraction of the nth substance listed

O=C(O)C(O)C(O)C(=O)O (configuration not stated) + O
viscosity, 100 kPa
Settings	298.15 K	303.15 K	308.15 K	313.15 K	318.15 K
x1 = 0.003486	0.9322 mPa·s and 0.9322 mPa·s	0.8367 mPa·s and 0.8367 mPa·s	0.7533 mPa·s and 0.7533 mPa·s	0.6829 mPa·s and 0.6829 mPa·s	0.6209 mPa·s and 0.6209 mPa·s
x1 = 0.006751	0.9765 mPa·s and 0.9765 mPa·s	0.8735 mPa·s and 0.8735 mPa·s	0.7864 mPa·s and 0.7864 mPa·s	0.7098 mPa·s and 0.7098 mPa·s	0.6435 mPa·s and 0.6435 mPa·s
x1 = 0.009818	1.038 mPa·s and 1.038 mPa·s	0.9206 mPa·s and 0.9206 mPa·s	0.8235 mPa·s and 0.8235 mPa·s	0.7408 mPa·s and 0.7408 mPa·s	0.6707 mPa·s and 0.6707 mPa·s
x1 = 0.0127	1.088 mPa·s and 1.088 mPa·s	0.9696 mPa·s and 0.9696 mPa·s	0.8645 mPa·s and 0.8645 mPa·s	0.7756 mPa·s and 0.7756 mPa·s	0.6996 mPa·s and 0.6996 mPa·s

COc1ccccc1 + CCCCCCCCCCCC
viscosity [mPa·s], 101.3 kPa
Settings	x1 = 0.1618	x1 = 0.2902	x1 = 0.3869	x1 = 0.4735	x1 = 0.5603	x1 = 0.7159	x1 = 0.843	x1 = 0.9414
293.15 K	1.324	1.228	1.17	1.125	1.092	1.023	–	–
303.15 K	1.123	1.048	–	0.964	0.94	0.903	0.89	0.902
313.15 K	0.967	0.908	0.872	0.843	0.821	0.791	0.781	0.79
323.15 K	0.844	0.797	0.768	0.744	0.726	0.701	0.692	0.699

Cc1ccc(S(=O)(=O)O)cc1 + C[N+](C)(C)Cc1ccccc1.[Cl-]
Settings	viscosity [mPa·s]
298 K, 101 kPa, x2 = 0.3	12850

c1ccc2ccccc2c1 + CCCCCC
viscosity
Settings	298.15 K	303.15 K	308.15 K	313.15 K	318.15 K
101 kPa, x1 = 0.09526	0.3806 mPa·s	0.3636 mPa·s	0.3455 mPa·s	0.331 mPa·s	0.3166 mPa·s
101 kPa, x1 = 0.1771	–	0.4135 mPa·s	0.3922 mPa·s	0.3737 mPa·s	0.3567 mPa·s
101.33 kPa, x1 = 0.09526	0.3806 mPa·s	0.3636 mPa·s and 0.3636 mPa·s	0.3455 mPa·s	0.331 mPa·s	0.3166 mPa·s and 0.3166 mPa·s
101.33 kPa, x1 = 0.1185	–	0.3813 mPa·s	–	–	0.3268 mPa·s
101.33 kPa, x1 = 0.1464	–	0.3926 mPa·s	–	–	0.3406 mPa·s
101.33 kPa, x1 = 0.1771	–	0.4135 mPa·s	–	–	0.3567 mPa·s
101.33 kPa, x1 = 0.18	–	0.4135 mPa·s	0.3922 mPa·s	0.3737 mPa·s	0.3567 mPa·s
101.33 kPa, x1 = 0.2165	–	–	–	–	0.3785 mPa·s

CC1COC(=O)O1 (configuration not stated) + CCCCCCO
Settings	viscosity [mPa·s]
298 K, 101.3 kPa, x1 = 0.0204	4.601
298 K, 101.3 kPa, x1 = 0.0408	4.607
298 K, 101.3 kPa, x1 = 0.0606	4.612
298 K, 101.3 kPa, x1 = 0.0808	4.612
298 K, 101.3 kPa, x1 = 0.1003	4.609
298 K, 101.3 kPa, x1 = 0.2005	4.548
298 K, 101.3 kPa, x1 = 0.3005	4.406
298 K, 101.3 kPa, x1 = 0.4004	4.191
298 K, 101.3 kPa, x1 = 0.5001	3.912
298 K, 101.3 kPa, x1 = 0.6002	3.586
298 K, 101.3 kPa, x1 = 0.7001	3.228
298 K, 101.3 kPa, x1 = 0.8001	2.854
298 K, 101.3 kPa, x1 = 0.9	2.536
298.15 K, 101 kPa, x1 = 0.0254	4.523
298.15 K, 101 kPa, x1 = 0.0901	4.346
298.15 K, 101 kPa, x1 = 0.1722	4.13
298.15 K, 101 kPa, x1 = 0.2303	3.984
298.15 K, 101 kPa, x1 = 0.3087	3.796
298.15 K, 101 kPa, x1 = 0.3846	3.621
298.15 K, 101 kPa, x1 = 0.4521	3.473
298.15 K, 101 kPa, x1 = 0.5332	3.303
298.15 K, 101 kPa, x1 = 0.6124	3.145
298.15 K, 101 kPa, x1 = 0.7005	2.978
298.15 K, 101 kPa, x1 = 0.7883	2.821
298.15 K, 101 kPa, x1 = 0.8455	2.722
298.15 K, 101 kPa, x1 = 0.9112	2.614
298.15 K, 101 kPa, x1 = 0.977	2.509

C1CCOC1 + C1CCCCC1
Settings	viscosity [mPa·s]
298.15 K, 101.3 kPa, x2 = 0.1002	0.4906
298.15 K, 101.3 kPa, x2 = 0.1973	0.5151
298.15 K, 101.3 kPa, x2 = 0.2946	0.5406
298.15 K, 101.3 kPa, x2 = 0.3963	0.5689
298.15 K, 101.3 kPa, x2 = 0.5012	0.6048
298.15 K, 101.3 kPa, x2 = 0.5961	0.6424
298.15 K, 101.3 kPa, x2 = 0.7009	0.6906
298.15 K, 101.3 kPa, x2 = 0.906	0.8152
303.15 K, 101.33 kPa, x1 = 0.0954	0.751
303.15 K, 101.33 kPa, x1 = 0.1961	0.691
303.15 K, 101.33 kPa, x1 = 0.3067	0.639
303.15 K, 101.33 kPa, x1 = 0.4023	0.6
303.15 K, 101.33 kPa, x1 = 0.5059	0.562
303.15 K, 101.33 kPa, x1 = 0.6054	0.533
303.15 K, 101.33 kPa, x1 = 0.704	0.505
303.15 K, 101.33 kPa, x1 = 0.8065	0.478
303.15 K, 101.33 kPa, x1 = 0.8987	0.457
313.15 K, 101.3 kPa, x2 = 0.1002	0.4186
313.15 K, 101.3 kPa, x2 = 0.1973	0.4356
313.15 K, 101.3 kPa, x2 = 0.2946	0.4542
313.15 K, 101.3 kPa, x2 = 0.3963	0.4773
313.15 K, 101.3 kPa, x2 = 0.5012	0.5037
313.15 K, 101.3 kPa, x2 = 0.5961	0.5305
313.15 K, 101.3 kPa, x2 = 0.7009	0.5648
313.15 K, 101.3 kPa, x2 = 0.906	0.6505

CC[N+](CC)(CC)CC.Cc1ccc(S(=O)(=O)[O-])cc1 + CC(O)CO
101 kPa, x1 = 0.2
Settings	viscosity [mPa·s]
298.15 K	66.9
303.15 K	51.2
308.15 K	39.8
313.15 K	31.6
318.15 K	25.5
323.15 K	20.9

C1CCOC1 + c1ccccc1
303.15 K, 101.33 kPa
Settings	viscosity [mPa·s]
x1 = 0.0997	0.547
x1 = 0.1996	0.536
x1 = 0.3017	0.524
x1 = 0.3993	0.514
x1 = 0.5018	0.504
x1 = 0.6038	0.495
x1 = 0.7011	0.484
x1 = 0.8026	0.471
x1 = 0.8977	0.457
